Consider five substances from patent US9983196B2, “Compositions and methods for optimizing drug hydrophobicity and drug delivery to cells” (Bioelastics, Inc., priority 2009, dated 2018).

For data set [1] the following is noted: negatively stained, electron micrograph; cited from earlier work.
The nature of data set [2]: differential scanning calorimetry of the inverse temperature transition: ΔGHA-based hydrophobicity scale. The data set is classed as physicochemical. The text has this: Described herein is a hydrophobicity scale based on the change in Gibbs free energy of hydrophobic association. Increase in entropy of water drives endothermic phase transition of hydrophobic association. For a narrow phase transition the chemical potential, t, of the molecules in the phase separated, hydrophobically associated state, 1.IHA, and the solution, hydrophobically dissociated state, 1.1HD, are equal. Therefore, at constant temperature and pressure, i.e., at equilibrium, the change in Gibbs free energy for the phase transition is zero, (ΔGt)TP=0 and ΔHT=TtΔSt. For the breadth of the transition of elastic-contractile model proteins [ECMP], it is written: ΔHt≈TtΔSt, (1) i.e., the heat of the transition, ΔHt in kcal/mol, is approximated by the product of the temperature of the transition, Tt in ° K, times the entropy change attending the transition, ΔSt in kcal/° K-mol.
The van der Walls interaction is exothermic for the hydrophobic association attending the ITT, yet the ITT is endothermic. […] The derivation of the change in Gibbs free energy for hydrophobic association, ΔGHA, and evaluation by inverse temperature transition of hydrophobic association has been reported previously (D. W. Urry, The Change in Gibbs Free Energy for Hydrophobic Association Derivation and Evaluation by means of Inverse Temperature Transitions. Chem. Phys. Letters 399 (2004) 177-183.), and is given more simply below. […]
Given the above approximation, but also recognizing that ASt is a calculated result from the differential scanning calorimetric measurement of ΔHt, we define the change in Gibbs free energy for hydrophobic association, ΔGHA, as,
The differential scanning calorimetry (DSC) data of ΔHt(GVGVP) (SEQ ID NO:4) and ΔHt(GVGIP) (SEQ ID NO:8) in FIG. 1 of Luan and Urry, J Phys Chem 95:7896-7900, 1991 provide a specific example of the difference that defines ΔGHA. […] This is the same value of 1.5 kcal/mol-CH2 for the addition of a single CH2 as determined by Butler for the alcohol series.
Once the values are determined by difference with ΔHt(GVGVP) (SEQ ID NO:4) as represented in FIG. 1E, they are translated so the reference polymer is taken as (GGGVP (SEQ ID NO:11), as this residue is considered to be close to neutral, being neither polar nor apolar. For use of (GGGVP) (SEQ ID NO:11) as the reference, i.e., ΔHt(GGGVP) (SEQ ID NO:11)=AHt(ref), in Table 3 and FIG. 13, the change in Gibbs free energy for hydrophobic association is indicated as ΔG^oHA, i.e., […]
In this case most of the ΔG^oHA values have been obtained by taking the experimental Tt, suitably extrapolated to fx=1 to obtain Tt, and reading the value of ΔG^oHA from the sigmoid curve of FIG. 13. […]
In general terms: DSC measures the heat that a sample takes up or gives off during a temperature scan.

The conditions of data set [3]: cited from earlier work; for Tt (data within parentheses): microbial preparations of poly(30 mers) (GVGVP GVGVP GχGVP GVGVP GVGVP GVGVP)n, n ≈ 40; for Tt: guest residue χ in poly[fχ(GχGVP),fv(GVGVP)], extrapolated to fχ=1, some cells marked (Tt).
For data set [4] the following is noted: cited from earlier work; for ΔG°HA(GχGVP) (data within parentheses): microbial preparations of poly(30 mers), n ≈ 40.

As to “(GVGVPGVGFPGEGFPGVGVPGVGFPGFGFP)42 (GVGVP) (GVGVPGVGFPGEGFPGVGVPGVGFPGFGFPGVGVP; repeat (1)..(30) the first 30 residues are repeated 42 times) [ECMP polymer of 253 pentamers forming drug delivery nanoparticles]”, the “nominal size of nanoparticles” value in data set [1] is 50 nm.

Consider Glu(COO^−) [E−: Glu(COO^−)], for which, in data set [2] (from Table 1), the “ΔGHA of ionization (neutral versus charged residue)” value worked out at 5.2 kcal/mol-pentamer. Further, the “Tt (data within parentheses)” value in data set [3] is given as “(218) ° C”. For the same substance, the “ΔG°HA(GχGVP) (data within parentheses)” value in data set [4] is reported as “(+3.72) kcal/mol-pentamer”.

On to Leu [L: Leu], for which the “change on replacement of Val by Leu (single —CH2—)” value in data set [2] (from Table 1) is −1.55 kcal/mol-CH2. In data set [3], the Tt was 5 °C. Moreover, the “ΔG°HA(GχGVP)” value in data set [4] (DSC, reference GGGVP = 0) was −4.05 kcal/mol-pentamer.

Regarding Lys(NH3+) [K+: Lys(NH3+)], the “ΔGHA of ionization (neutral versus charged residue)” value in data set [2] (from Table 1) stood at 3.5 kcal/mol-pentamer. The “Tt (data within parentheses)” value in data set [3] is reported as “(104) ° C”. The “ΔG°HA(GχGVP) (data within parentheses)” value in data set [4] is reported as “(+2.94) kcal/mol-pentamer”.

On to Ser (PO4^−2), for which, in data set [2], the “contribution to change in Gibbs free energy for hydrophobic association on phosphorylation of Ser” value is “about +8 kcal/mol”. Moreover, the Tt in data set [3] is 860 (Tt) ° C. The “Tt linearly extrapolated to fX = 1” value in data set [3] (poly[fV(VPGVG),fX(VPGXG)], 40 mg/ml polymer, 0.15N NaCl, 0.01M phosphate pH 7.4) is 860 °C. Moreover, the “ΔG°HA(GχGVP) (from graph)” value in data set [4] (Tt used to obtain value from experimental sigmoid curve of Tt versus ΔG°HA) is listed as “≈+8.0 (from graph) kcal/mol-pentamer”. In addition, the “ΔG°HA from FIG. 13” value in data set [4] (gross estimates (±0.5 kcal/mol) from Tt and curve, 40 mg/ml polymer, 0.15N NaCl, 0.01M phosphate pH 7.4) is listed as “+8.0 kcal/mol”.
